According to patent US7186534B1 (The Trustees of Columbia University in the City of New York, priority 1997, dated 2007):
Like-named read-outs stand apart in the source and are kept apart here.

Key:
mouse 9cRDH [1] = biological target: T1, mouse 9cRDH (Mus musculus, UniProt O55240); experiment: Inhibition of recombinant mouse 9cRDH activity (9-cis-retinol oxidation, CHO cell homogenate, HPLC); type: biochemical; conditions: for inhibition of mouse 9cRDH activity (in words): 10 μM 9-cis-retinol
T1 sequence (O55240 1-318): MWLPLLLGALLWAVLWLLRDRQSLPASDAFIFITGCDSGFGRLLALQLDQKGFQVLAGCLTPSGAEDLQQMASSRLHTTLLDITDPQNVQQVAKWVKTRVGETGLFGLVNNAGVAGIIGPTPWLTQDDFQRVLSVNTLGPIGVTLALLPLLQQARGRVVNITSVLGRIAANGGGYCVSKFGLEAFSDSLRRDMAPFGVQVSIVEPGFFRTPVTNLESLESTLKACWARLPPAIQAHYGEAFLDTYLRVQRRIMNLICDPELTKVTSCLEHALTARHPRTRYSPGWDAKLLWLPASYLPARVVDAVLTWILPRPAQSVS

visual cycle = conditions: administration to frogs; cited from earlier work
[2] = biological target: human alcohol dehydrogenase type IV (Homo sapiens, UniProt P40394); conditions: cited from earlier work
[3] = biological target: rat liver and human prostate 17β-hydroxysteroid dehydrogenase (identical to retinol dehydrogenase, type I); conditions: cited from earlier work
[4] = animals and humans receiving 13-cis-retinoic acid pharmacologically; cited from earlier work
[5] = Isomerization of retinoic acids in the human 9-cis retinol dehydrogenase assay; type: physicochemical; conditions: for 13-cis isomer present at end of assay / all-trans isomer present at end of assay / 9-cis isomer present at end of assay: 37° C., 15 minutes; for final concentration of 13-cis-retinoic acid formed by isomerization: 10 μM retinoic acid, end of the 15 minute assay
Method: Inhibition Studies of 9cRDH Activity. For the inhibition experiments, each potential inhibitor tested was added to the recombinant 9cRDH in 5 μl of ethanol in the presence of 2 mM NAD^+, 10 mM Hepes, pH 8.0, containing 150 mM KCl, 1 mM EDTA, and 50 μg phosphotidyl choline (assay incubation mixture lacking the retinoid substrate). This mixture was allowed to sit on ice for 5 minutes prior to adding substrate. Upon addition of 10 μM 9-cis-retinol (final concentration), the mixture was incubated for 15 minutes at […] with agitation and extracted as described above for the standard enzyme assay. HPLC Procedures. Stereoisomers of both retinol and retinaldehyde were separated on a 4.6×15-mm Supelco (Belefonte, Pa.) LC-SI Supelcosil™ column using hexane:ethyl acetate:butanol (96.9:3:0.1 v/v) as the mobile phase flowing at 0.8 ml/min. A silica guard column (Supelco) preceded the running column. Retinols and retinaldehydes were detected using a Waters 996 Photodiode array detector at absorbances of 325 and 365 nm, respectively. Retention times for all-trans-, 9-cis-, 11-cis-, and 13-cis-retinols and corresponding retinaldehydes were established using the purified compounds obtained as described above. Quantities of each retinol and retinaldehyde isomer present in extracts were determined by comparisons of the integrated areas under the HPLC peaks with a standard curve constructed relating integrated peak area with known masses of each retinoid isomer. The concentration of each retinoid isomer were determined by UV-visible spectrophotometry using published extinction coefficients for each retinol, retinaldehyde or retinoic acid isomer (25).
To test this possibility, the degree of isomerization of retinoic acid which occurs under the assay conditions was measured.

[6] = biological target: T2, human 9-cis retinol dehydrogenase (9cRDH) (Homo sapiens, UniProt Q92781); experiment: Inhibition of recombinant human 9cRDH activity (9-cis-retinol oxidation, CHO cell homogenate, HPLC); type: biochemical
T2 sequence (Q92781 1-318): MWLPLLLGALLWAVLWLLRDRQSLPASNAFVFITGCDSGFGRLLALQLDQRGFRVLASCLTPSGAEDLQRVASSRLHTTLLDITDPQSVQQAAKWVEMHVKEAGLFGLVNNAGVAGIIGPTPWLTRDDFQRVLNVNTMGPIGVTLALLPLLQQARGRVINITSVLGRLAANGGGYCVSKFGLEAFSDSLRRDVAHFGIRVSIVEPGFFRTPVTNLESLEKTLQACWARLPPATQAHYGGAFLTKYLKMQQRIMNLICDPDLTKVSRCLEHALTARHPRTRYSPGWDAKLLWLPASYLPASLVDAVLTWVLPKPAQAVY

mouse 9cRDH [7] = biological target: T1, mouse 9cRDH; experiment: Hydroxysteroid oxidation/reduction by mouse 9cRDH (TLC); type: biochemical; conditions: 37° C., 1.5 h; TLC detection limit approximately 3 pmol/min/mg protein
Method: (§1) To investigate whether human or mouse 9cRDH will catalyze oxidations or reductions of 3α-hydroxy-, 11β-hydroxy- or 17β-hydroxysteroids, these steroids were incubated at 37° C. for 1.5 h in the assay media described above for assessing oxidation/reduction of 9-cis-retinol/9-cis-retinaldehyde. The Hepes NAD^+-containing assay buffer described above was employed to assess hydroxysteroid oxidation and to assess hydroxysteroid reduction the acetate buffer containing NADH (or NADPH) assay buffer (see above) was employed. Immediately following incubation, the steroids were extracted as described above for retinoids. The final hexane extract was evaporated to near dryness and this was spotted onto a silica high performance TLC plate (Whatman Inc., Clifton, N.J.) and developed in hexane/diethyl ether/acetic acid (70:30:1, v/v) or ethyl acetate/chloroform (25:75, v/v). Steroids were visualized by charring after treatment of the TLC plates with an areosol of 10% (v/v) H2SO4 in methanol.
(§2) Biswas and Russell (32) have reported that rat liver all-trans-retinol dehydrogenase type I also uses several 3α-hydroxy- and 17β-hydroxysteroids as substrates. Chai et al. (18) also reported that hydroxysteroids are substrates for mouse liver cis-retinol dehydrogenase. Since human 9cRDH is approximately 50% identical to the rat liver enzymes and shares approximately 63% homology to mouse liver cis-retinol dehydrogenase, next investigated was whether these steroids might also be substrates for 9cRDH. To test this possibility it was determined whether human or mouse 9cRDH would catalyze oxidation of 5α-androstan-3α, 17β-diol, androsterone, testosterone or dihydrotestosterone to corresponding ketone products. Also investigated was whether human and/or mouse 9cRDH could catalyze reduction of the corresponding ketones. […] It is estimate, based on the lower limits for hydroxysteroid detection by TLC, that it would be possible to detect rates of hydroxysteroid oxidation as low as approximately 3 pmol/min/mg protein. This rate of hydroxysteroid oxidation is at least 2-orders of magnitude lower than Vmax values reported by Biswas and Russell (32) and Chai et al. (18) for oxidation of hydroxysteroids in their studies of enzymes that are able to oxidize both retinol and hydroxysteroids.

human 9cRDH = biological target: T3, human 9cRDH (Homo sapiens, UniProt Q92781); experiment: Hydroxysteroid oxidation/reduction by human 9cRDH (TLC); type: biochemical; conditions: 37° C., 1.5 h; TLC detection limit approximately 3 pmol/min/mg protein
T3 sequence (Q92781 1-318): T2 sequence (Q92781 1-318)
Method: as §1, §2

[8] = 1 μM 13-cis Retinoic Acid at start
[9] = 10 μM steroid, equimolar to substrate, forward (retinol oxidation) or reverse (retinaldehyde reduction) direction

human alcohol dehydrogenase type IV, sequence (P40394 whole entry): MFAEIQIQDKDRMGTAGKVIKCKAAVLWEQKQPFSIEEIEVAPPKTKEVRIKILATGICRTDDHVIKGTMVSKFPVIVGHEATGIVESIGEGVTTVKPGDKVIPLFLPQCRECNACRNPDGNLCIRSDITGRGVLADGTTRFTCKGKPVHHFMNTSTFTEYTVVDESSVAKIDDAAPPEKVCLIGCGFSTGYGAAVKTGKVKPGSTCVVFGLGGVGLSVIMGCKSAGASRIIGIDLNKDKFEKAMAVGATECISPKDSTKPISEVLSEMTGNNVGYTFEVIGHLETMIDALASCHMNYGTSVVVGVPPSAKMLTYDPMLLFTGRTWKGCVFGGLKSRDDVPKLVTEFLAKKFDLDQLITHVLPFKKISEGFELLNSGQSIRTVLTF

CC1=C(/C=C/C(C)=C/C=C/C(C)=C\C(=O)O)C(C)(C)CCC1 [13-cis Retinoic Acid, 13-cis-retinoic acid]
concentration at which mouse 9cRDH is potently inhibited (mouse 9cRDH [1]): 0.05 µM | inhibition of mouse 9cRDH activity (in words) (mouse 9cRDH [1]): very potent inhibitors | IC50 (mouse 9cRDH [1]; substrate concentration 10 μM, read-out: Inhibitor concentration giving approximately 50% inhibition of m9cRDH activity): ~150 nM | block of the visual cycle in vivo (in words) (visual cycle): block the visual cycle | inhibition of purified human alcohol dehydrogenase type IV (in words) [2]: in vitro inhibition | Ki [3]: 4000 nM | concentrations reached in the blood and tissues [4]: ≥ 10 µM | 13-cis isomer present at end of assay [5, 8]: 98.4% | all-trans isomer present at end of assay [5, 8]: 1.6% | concentration at which human 9cRDH is potently inhibited [6]: 0.05 µM | expected inhibition of h9cRDH activity ([6]; 0.1 μM 13-cis-retinoic acid present for the full 15 minute incubation): 40–50% | inhibition of human 9cRDH activity (in words) ([6]; 10 μM 9-cis-retinol, listed as 13-cis retinoic acid): potent inhibitors | inhibition of human 9cRDH activity (in words) ([6]; 10 μM 9-cis-retinol, listed as 13-cis-retinoic acid): very potent inhibitors

CC1=C(/C=C/C(C)=C\C=C\C(C)=C\C(=O)O)C(C)(C)CCC1 [9-cis Retinoic Acid, 9-cis-retinoic acid]
inhibition of mouse 9cRDH activity (in words) (mouse 9cRDH [1]): very potent inhibitors | Ki [3]: 400 nM | 9-cis isomer present at end of assay ([5]; 10 μM retinoic acid at start): 94.7% | 13-cis isomer present at end of assay ([5]; 10 μM retinoic acid at start): 1.1% | all-trans isomer present at end of assay ([5]; 10 μM retinoic acid at start): 4.2% | 13-cis isomer present at end of assay ([5]; 10 μM retinoic acid at start, listed as 9-cis-retinoic acid): ~1.1% | final concentration of 13-cis-retinoic acid formed by isomerization [5]: approximately 0.1 μM | times (fold) less potent than 13-cis retinoic acid as inhibitor of 9cRDH [6]: 18 | inhibition of human 9cRDH activity (in words) ([6]; 10 μM 9-cis-retinol, listed as 9-cis retinoic acid): potent inhibitors | inhibition of human 9cRDH activity (in words) ([6]; 10 μM 9-cis-retinol, listed as 9-cis-retinoic acid): very potent inhibitors | inhibition of 9cRDH activity ([6]; 10 μM retinoic acid): 81%

CC1=C(/C=C/C(C)=C/C=C/C(C)=C/C(=O)O)C(C)(C)CCC1 [all-trans Retinoic Acid, all-trans-retinoic acid]
inhibition of mouse 9cRDH activity (in words) (mouse 9cRDH [1]): very potent inhibitors | block of the visual cycle in vivo (in words) (visual cycle): block the visual cycle | 9-cis isomer present at end of assay ([5]; 10 μM retinoic acid at start): 0.4% | 13-cis isomer present at end of assay ([5]; 10 μM retinoic acid at start): 0.8% | all-trans isomer present at end of assay ([5]; 10 μM retinoic acid at start): 98.8% | 13-cis isomer present at end of assay ([5]; 10 μM retinoic acid at start, listed as all-trans-retinoic acid): approximately 1% | final concentration of 13-cis-retinoic acid formed by isomerization [5]: approximately 0.1 μM | times (fold) less potent than 13-cis retinoic acid as inhibitor of 9cRDH [6]: 30 | IC50 ([6]; 10 μM 9-cis-retinol, 15 min, 37° C., CHO cell homogenate, read-out: Estimated inhibitor concentration resulting in 50% inhibition of human 9-cis retinol dehydrogenase activity (ID50)): 4.6 µM | inhibition of human 9cRDH activity (in words) ([6]; 10 μM 9-cis-retinol, listed as all-trans retinoic acid): potent inhibitors | inhibition of human 9cRDH activity (in words) ([6]; 10 μM 9-cis-retinol, listed as all-trans-retinoic acid): very potent inhibitors | inhibition at 10 µM ([6]; 10 μM retinoic acid): 66%

C[C@]12CCC(=O)C[C@@H]1CC[C@@H]1[C@@H]2CC[C@]2(C)[C@@H](O)CC[C@@H]12 [5α-androstan-17βol-3one]
inhibition of mouse 9cRDH activity by hydroxysteroids (mouse 9cRDH [1]): none of these hydroxysteroids inhibited | catalysis by mouse 9cRDH of hydroxysteroid oxidation to ketone products (or reduction of the corresponding ketones) (mouse 9cRDH [7]): Neither human nor mouse 9cRDH were found to catalyze | inhibition of human 9cRDH activity by hydroxysteroids [6]: none of these hydroxysteroids inhibited | catalysis by human 9cRDH of hydroxysteroid oxidation to ketone products (or reduction of the corresponding ketones) (human 9cRDH): Neither human nor mouse 9cRDH were found to catalyze

C[C@]12CC[C@H]3[C@@H](CCC4=CC(=O)CC[C@@]43C)[C@@H]1CC[C@@H]2O [testosterone]
inhibition of mouse 9cRDH activity by hydroxysteroids (mouse 9cRDH [1]; [9]): none of these hydroxysteroids inhibited | catalysis by mouse 9cRDH of hydroxysteroid oxidation to ketone products (or reduction of the corresponding ketones) (mouse 9cRDH [7]): Neither human nor mouse 9cRDH were found to catalyze | inhibition of human 9cRDH activity by hydroxysteroids [6, 9]: none of these hydroxysteroids inhibited | catalysis by human 9cRDH of hydroxysteroid oxidation to ketone products (or reduction of the corresponding ketones) (human 9cRDH): Neither human nor mouse 9cRDH were found to catalyze
